The source of these data is patent US20100184644A1, “MUCOSAL REPAIR BY TFF DIMER PEPTIDES” (priority 2001, published 2010).

No end group written: not given here.

Series [1] has as its system mucin I (crude mucin, type II from porcine stomach). As to the kind of experiment: Oscillatory rheometer measurement of mucin solution and mucin/TFF3 dimer gel-like material. Conditions: for Elastic modules G′ / Viscous modulus G″: 2 ml 10% (w/v) mucin I + 10 mg TFF3 dimer in 0.4 ml water, 30 min, 20° C. Here is the method:
FIG. 3. Oscillatory measurement of mucin solution (a) and mucin/TFF3 dimer peptide gel-like material (b). 2 ml of 10% (w/v) mucin I dissolved in 0.05% (w/v) sodiumazide was added 0.4 ml of water (a) or 0.4 ml of water containing 10 mg TFF3 dimer peptide (b). After 30 min at 20° C. a sinosoidally varying stress was applied and the strain response was detected at different frequencies. The complex viscosity (η*) ? the elastic modulus (G′) ? and the viscous modulus (G″) ? was calculated and plotted as a function of different frequencies.
(§1) Rheological measurements. Rheological properties were measured by the use of a rotational Reologica Rheometer (Reologica Instriments AB, Lund, Sweden). The instrument is equipped with a stainless steel C40 4 cone-plate (40 mm diameter plate with an angle of 4 degree) requiring a sample volume of at least 1.2 ml. The instrument was operated using instrument standard software (Version 3.6) allowing several different types of measurements. In the present study we have used the measuring programs: Constant Rate (viscosity and stress as a function of shear rate), Oscillation (complex viscosity, elastic modulus and viscous modulus at different frequencies) and Oscillation Stress Sweep (to identify the stress range inside which the measurement results are linear i.e. independent of the applied stress).
In order to characterise the mucin/TFF dimer peptide gel-like structure, the technique of oscillatory measurement in which the gel-like material are subjected to a sinusoidaily varying stress is applied and the strain response is measured. Before this measurement is carried out an oscillation stress sweep programme is used to define the so-called linear viscoelastic region. Inside this region no change of the mucin/TFF dimer peptide structure occurs and the relation between the applied stress and the measured quantities is linear.
This type of experiments allow the estimation of several rheological parameters as a function of frequency: complex viscosity η*, elastic modulus G′ and viscous modulus G″ (for detailed rheological theory see Barnes, H. A. (1989) An introduction to rheology. Elsevier and Ferguson, J. and Kemblowski, Z. (1991) Applied fluid rheology. Elsevier)

The test system is the same in series [2]. The experiment in a line: Viscosity versus shear rate (constant rate rheometer programme). Conditions: 2 ml 10% (w/v) mucin I + 7.05 mg TFF3 dimer; 30 min, 20° C.; FIG. 4. Here is the method:
FIG. 4. Viscosity versus shear rate of TFF3 dimer peptides. 2 ml 10% (w/v) mucin I dissolved in 0.05% sodiumazide was added 7.05 mg TFF3 dimer dissolved in water. After 30 min at 20° C. the viscosity was measured as function of shear rate using the software programme: “constant rate”. ? mucin I alone; Δ—Δ: mucin I+TFF3 dimer.
as §1

The test system of the next series is dextran induced colitis. The experiment in a line: Dextran induced colitis model, luminal TFF3. Format: in vivo, rat. An excerpt: (§2) Methods: 32 female wistar rats weighing 200 g were used in the study. The effect of luminal TFF3 was investigated in two rat models of colitis—the Mitomycin C induced colitis model (Keshavarzian A. et al. J. Lab Clin. Med. 1992; 120:778-91) and the dextran induced colitis model (Mottet N K. Gastroenterology 1972; 62:1269-71). TFF3 was administrated directly into the proximal part of the colon by means of a soft polyethylene tube which in anaesthezised rats at a laparotomy, was inserted into the colonic lumen, secured by 6-0 silk sutures and lead subcutaneously to the neck region of the rat.
Dextran colitis: In 16 rats colitis was induced by means of dextran sulphate sodium 5% administered in the drinking water. Eight of the rats were given TFF3, 5 mg/kg in 0.5 ml H2O into the colonic tube, two times each day from the day before the initiation of dextran supplementation till day 9, where the rats were sacrificed. The 8 controls recieved NaCl. The rats were sacrificed by means of an overdose of barbiturate. The colon was fixed by intraluminal injection of 10% formalin, and after 10 minutes opened and suspended on a polyethylene plate. After further 24 hours fixation the specimens were flushed with water and surface stained with 0.3% Alcian Green 3BX. The colonic specimens were investigated by means of a Wild Photomacroscope—the extent of disease and the number of ulcerations were quantitated. For histologic analysis specimens were taken out (in a blinded way) from the proximal, middle and distal colon and embedded in paraffin. Histologic sections of 5 μm were stained with PAS-hematoxylin-aurentia. The severety of colitis was scored by means of a histologic colitis score (Williams K L. et al. Gastroenterology 2001; 120:925-37).

Series [3] has as its system Mitomycin C induced colitis. As to the kind of experiment: Mitomycin C induced colitis model, luminal TFF3. In kind it is in vivo, rat.
Text: as §2
Mitomycin C colitis: In 16 rats colitis was induced by means of Mitomycin C, 3.75 mg/kg. Eight of the rats were given TFF3, 5 mg/kg in 0.5 ml H2O, two times each day from day 4-7 into the colonic tube. The 8 controls received NaCl. The rats were sacrificed by means of an overdose of barbiturate 8 days after mitomycin administration. The colon was fixed by intraluminal injection of 10% formalin, and after 10 minutes opened and suspended on a polyethylene plate. […] The colonic specimens were investigated by means of a Wild Photomacroscope—the extent of disease and the number of ulcerations were quantitated. […] The severety of colitis was scored by means of a histologic colitis score (FIG. 5, Williams K L. et al. Gastroenterology 2001; 120:925-37).

On to “TFF3 dimer: dimer form of recombinant human TFF3; two TFF3 monomers linked by a disulfide bond between Cys57 of each monomer (EEYVGLSANQCAVPAKDRVDCGYPHVTPKECNNRGCCFDSRIPGVPWCFKPLQEAECTF; not fully specified (bridges); also: homodimer via disulfide between Cys57 of each monomer)”, for which the “Elastic modules G′” value in series [1] (0.01 Hz) came out at 19 Pa; in series [1] (0.1 Hz), 52 Pa; in series [1] (1 Hz), 86 Pa. Moreover, the “Viscous modulus G″” value in series [1] (0.01 Hz) amounted to 18 Pa; in series [1] (0.1 Hz), 37 Pa; in series [1] (1 Hz), 54 Pa. Moreover, the “Elastic modulus and viscous modulus compared to the mucin solution” value in series [1] (mucin/TFF3 dimer gel-like structure vs mucin solution) is reported as “dramatically increased”. Besides, the “Effect on the viscosity of the mucin I solution” value in series [2] is listed as “significant effect”.
Take “TFF3: trefoil factor 3 given intraluminally to rats; Example 2 does not state monomer or dimer form (EEYVGLSANQCAVPAKDRVDCGYPHVTPKECNNRGCCFDSRIPGVPWCFKPLQEAECTF; not fully specified (bridges); cysteine pairing not given here; UniProt Q07654 22-80, looked up)”: the “Overall colitis score (histologic)” value in the series with dextran induced colitis (rat, TFF3 5 mg/kg intraluminal twice daily till day 9, control (NaCl) 3.18, p<0.05) worked out at 1.1; in series [3] (rat, TFF3 5 mg/kg intraluminal twice daily day 4-7, control (NaCl) 10.8, p<0.01), 3.4. The “Histologic colitis score in the midsegment of the colon” value in the series with dextran induced colitis (rat, TFF3 5 mg/kg intraluminal twice daily, control 1.8, p<0.05) is on record as 0.4. Moreover, the “Severity of dextran induced colitis” value in the series with dextran induced colitis (rats, intraluminal treatment) is given as “reduces the severity”. Moreover, in series [3] (rats, intraluminal treatment), the “Severity of mitomycin induced colitis” value is given as “reduces the severity”.
